Measured values reported in publication PMC11753601 (Angewandte Chemie (International Ed. in English), 2024).

Tested on: E-Box DNA
Assay type: binding
Conditions: pH 8

In the case of “(AcATEENVKRRTHNVLERQRRNELKRSFFG)2K (sidechain bridge or staple) [MiniMYC 1]”, the “Binding to E-Box DNA in EMSA (in words)” value is reported as “no binding”.

For “(AcATEENVKRRTHNVLERQRRNELKRSSCFA)2-Linker (sidechain bridge or staple) [MiniMYC 3]”, the “Binding to E-Box DNA in EMSA (in words)” value was “did not show any specific association”.

“(AcVKRRTHNVLERQRRNELKRSFFALRDQIPELENNEKAPKVVILKKATAYILSAβC)2-linker (sidechain bridge or staple) [DuoMYC 7]” showed a Kd (read-out: KD for E-Box DNA measured by EMSA) of about 174 nM.
